In US20240081328A1, “Use of 4-Nitro-3-(Trifluoromethyl)Phenol in Killing or Controlling Pomacea Canaliculata, Method for Killing or Controlling Pomacea Canaliculata, and Molluscicide” (priority 2021, published 2024):
Read-outs that look alike come from different tables or passages of the source.

Test system: Pomacea canaliculata
Experiment: Immersion test of dilutions in beakers, mortality rate of Pomacea canaliculata
Format: in vivo
Details: for mortality at 0.0039 µg/mL / mortality at 0.0078 µg/mL / mortality at 0.0156 µg/mL / mortality at 0.0312 µg/mL / mortality at 0.0625 µg/mL / mortality at 0.125 µg/mL / mortality at 0.25 µg/mL / mortality at 0.5 µg/mL: Pomacea canaliculata, read-out: Mortality rate (%) of Pomacea canaliculata at different action time (h); for mortality at 0.0039 µg/mL: 0.0039 mg/L; for mortality at 0.0078 µg/mL: 0.0078 mg/L; for mortality at 0.0156 µg/mL: 0.0156 mg/L; for mortality at 0.0312 µg/mL: 0.0312 mg/L; for mortality at 0.125 µg/mL: 0.125 mg/L; for mortality at 0.25 µg/mL: 0.25 mg/L; for mortality at 0.5 µg/mL: 0.5 mg/L
Procedure: 0.5 mg of 4-nitro-3-(trifluoromethyl)phenol and 0.5 mg of niclosamide were completely dissolved in 1 mL of a dimethyl sulfoxide (DMSO) solution separately, and diluted to 1,000 mL with deaminized water to obtain a 4-nitro-3-(trifluoromethyl)phenol solution with a concentration of 0.5 mg/L and a niclosamide solution with a concentration of 0.5 mg/L.
The two solutions were separately diluted into 7 concentrations of dilutions using a doubling dilution method, including 0.25 mg/L, 0.125 mg/L, 0.0625 mg/L, 0.0312 mg/L, 0.0156 mg/L, and 0.0078 mg/L, and 0.0039 mg/L.
400 mL of the dilutions with different concentrations were separately poured into a 500 mL beaker, 10 Pomacea canaliculata samples were put into the dilution of each concentration, and each bottle mouth was sealed with wire mesh to completely immerse the Pomacea canaliculata in the dilution; clear water was used as a control group.
The experimental data were used to calculate the mortality rate of each treatment according to the following formula. Each calculation result was rounded to two decimal places. A formula for calculating the mortality rate was: […]
In the formula: P represented the mortality rate, in percentage (%); Σ^Ki represented • the number of dead Pomacea canaliculata, in snails; Σ^Ni represented the total number of treated Pomacea canaliculata, in snails.

O=[N+]([O-])c1ccc(O)cc1C(F)(F)F [4-nitro-3-(trifluoromethyl)phenol]
killing of Pomacea canaliculata (in words) (0.0625 mg/L, action time of 24 h): could kill all Pomacea canaliculata
mortality at 0.0039 µg/mL (action time 0 h): 0%
mortality at 0.0039 µg/mL (action time 12 h): 0%
mortality at 0.0039 µg/mL (action time 24 h): 20%
mortality at 0.0039 µg/mL (action time 36 h): 50%
mortality at 0.0039 µg/mL (action time 48 h): 50%
mortality at 0.0039 µg/mL (action time 60 h): 50%
mortality at 0.0039 µg/mL (action time 72 h): 70%
mortality at 0.0078 µg/mL (action time 0 h): 0%
mortality at 0.0078 µg/mL (action time 12 h): 0%
mortality at 0.0078 µg/mL (action time 24 h): 40%
mortality at 0.0078 µg/mL (action time 36 h): 100%
mortality at 0.0078 µg/mL (action time 48 h): 100%
mortality at 0.0078 µg/mL (action time 60 h): 100%
mortality at 0.0078 µg/mL (action time 72 h): 100%
mortality at 0.0156 µg/mL (action time 0 h): 0%
mortality at 0.0156 µg/mL (action time 12 h): 10%
mortality at 0.0156 µg/mL (action time 24 h): 100%
mortality at 0.0156 µg/mL (action time 36 h): 100%
mortality at 0.0156 µg/mL (action time 48 h): 100%
mortality at 0.0156 µg/mL (action time 60 h): 100%
mortality at 0.0156 µg/mL (action time 72 h): 100%
mortality at 0.0312 µg/mL (action time 0 h): 0%
mortality at 0.0312 µg/mL (action time 12 h): 30%
mortality at 0.0312 µg/mL (action time 24 h): 100%
mortality at 0.0312 µg/mL (action time 36 h): 100%
mortality at 0.0312 µg/mL (action time 48 h): 100%
mortality at 0.0312 µg/mL (action time 60 h): 100%
mortality at 0.0312 µg/mL (action time 72 h): 100%
mortality at 0.0625 µg/mL (0.0625 mg/L, action time 0 h): 0%
mortality at 0.0625 µg/mL (0.0625 mg/L, action time 12 h): 70%
mortality at 0.0625 µg/mL (0.0625 mg/L, action time 24 h): 100%
mortality at 0.0625 µg/mL (0.0625 mg/L, action time 36 h): 100%
mortality at 0.0625 µg/mL (0.0625 mg/L, action time 48 h): 100%
mortality at 0.0625 µg/mL (0.0625 mg/L, action time 60 h): 100%
mortality at 0.0625 µg/mL (0.0625 mg/L, action time 72 h): 100%
mortality at 0.125 µg/mL (action time 0 h): 0%
mortality at 0.125 µg/mL (action time 12 h): 100%
mortality at 0.125 µg/mL (action time 24 h): 100%
mortality at 0.125 µg/mL (action time 36 h): 100%
mortality at 0.125 µg/mL (action time 48 h): 100%
mortality at 0.125 µg/mL (action time 60 h): 100%
mortality at 0.125 µg/mL (action time 72 h): 100%
mortality at 0.25 µg/mL (action time 0 h): 0%
mortality at 0.25 µg/mL (action time 12 h): 100%
mortality at 0.25 µg/mL (action time 24 h): 100%
mortality at 0.25 µg/mL (action time 36 h): 100%
mortality at 0.25 µg/mL (action time 48 h): 100%
mortality at 0.25 µg/mL (action time 60 h): 100%
mortality at 0.25 µg/mL (action time 72 h): 100%
mortality at 0.5 µg/mL (action time 0 h): 0%
mortality at 0.5 µg/mL (action time 12 h): 100%
mortality at 0.5 µg/mL (action time 24 h): 100%
mortality at 0.5 µg/mL (action time 36 h): 100%
mortality at 0.5 µg/mL (action time 48 h): 100%
mortality at 0.5 µg/mL (action time 60 h): 100%
mortality at 0.5 µg/mL (action time 72 h): 100%
Pomacea canaliculata killing activity / control effect compared with niclosamide (overall conclusion from Tables 2 and 3): comparable to that of the niclosamide
killing effect on the Pomacea canaliculata (in words) (overall conclusion from the examples): obvious killing effect
